Values quoted from earlier work, collected in US20030199483A1, “Aldosterone receptor antagonist and alpha-adrenergic modulating agent combination therapy for prevention or treatment of pathogenic conditions” (priority 2002, published 2003).

Test system: myocardial fibrosis in animal models

CC(=O)S[C@@H]1CC2=CC(=O)CC[C@]2(C)[C@H]2CC[C@@]3(C)[C@@H](CC[C@@]34CCC(=O)O4)[C@H]12 [spironolactone, 17-hydroxy-7α-mercapto-3-oxo-17α-pregn-4-ene-21-carboxylic acid γ-lactone acetate]
myocardial fibrosis (D. Klug et al 1993): prevents myocardial fibrosis | fibrosis (irrespective of the development of left ventricular hypertrophy and the presence of hypertension, C. G. Brilla et al 1993): prevent fibrosis
